Legend:
[1] = target: NAMPT (human, recombinant, C-terminally His-tagged) (Homo sapiens, UniProt P43490); test: Time-Resolved Fluorescence Resonance Energy Transfer (TR-FRET) Binding Assay of NAMPT; conditions: absence of substrates; 6.8 nM NAMPT, 200 nM probe, equilibrated 3 hours
Procedure, shortened: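 Displacement of 200 nM Oregon Green-labelled nicotinamide-competitive probe from 6.8 nM His-tagged NAMPT, detected with 1 nM Tb-anti-His; HEPES pH 7.5, 2% DMSO, 3 h room temperature. Em520/Em495 ratios normalized and fit four-parameter logistic for IC50.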

NAMPT = NAMPT (Homo sapiens, UniProt P43490); test: Time-Resolved Fluorescence Resonance Energy Transfer (TR-FRET) Binding Assay of NAMPT with PRPP; conditions: 200 μM PRPP and 2.5 mM ATP; 2 nM NAMPT, 2 nM probe, equilibrated 16 hours
Sequence of NAMPT (P43490 whole entry): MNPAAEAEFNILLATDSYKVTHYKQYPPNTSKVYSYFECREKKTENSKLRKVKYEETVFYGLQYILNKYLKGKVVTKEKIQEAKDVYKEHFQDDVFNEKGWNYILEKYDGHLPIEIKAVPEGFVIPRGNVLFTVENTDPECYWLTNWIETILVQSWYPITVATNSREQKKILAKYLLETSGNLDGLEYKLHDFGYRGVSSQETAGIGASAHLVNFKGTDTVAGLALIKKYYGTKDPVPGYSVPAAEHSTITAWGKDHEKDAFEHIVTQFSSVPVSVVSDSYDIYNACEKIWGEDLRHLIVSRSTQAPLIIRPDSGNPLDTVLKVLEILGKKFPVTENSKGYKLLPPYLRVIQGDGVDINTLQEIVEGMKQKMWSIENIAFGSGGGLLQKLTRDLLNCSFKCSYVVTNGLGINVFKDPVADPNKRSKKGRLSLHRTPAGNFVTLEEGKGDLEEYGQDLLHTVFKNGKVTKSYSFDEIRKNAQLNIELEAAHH
Procedure, shortened: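 Binding was measured by TR-FRET with 2 nM NAMPT, 2 nM probe and 1 nM Tb-anti-His antibody in the presence of 200 μM PRPP and 2.5 mM ATP, with 2% DMSO. Equilibration lasted 16 h before reading, allowing possible enzymatic modification of compounds.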

activated T cells = conditions: cited from earlier work
[2] = test system: collagen-induced arthritis; conditions: cited from earlier work
[3] = test system: experimental autoimmune encephalomyelitis (EAE); conditions: a model of T-cell mediated autoimmune disorders; cited from earlier work

Sequence of NAMPT (human, recombinant, C-terminally His-tagged) (P43490 whole entry): as above

IC50 [1] | IC50 (NAMPT) | SMILES | further results
> 10000 nM | 0.262 nM | COCCC(=O)N(CCCN1CCCC1)c1ncc(C(=O)NCCCn2ccnc2)s1 [Example 192, N-[3-(1H-imidazol-1-yl)propyl]-2-{(3-methoxypropanoyl)[3-(pyrrolidin-1-yl)propyl]amino}-1,3-thiazole-5-carboxamide] | 
6060 nM | 0.755 nM | CCN1CC(CN(C(=O)CCOC)c2ncc(C(=O)NCCCn3ccnc3)s2)CC1=O (stereo not shown) [Example 193, 2-{[(1-ethyl-5-oxopyrrolidin-3-yl)methyl](3-methoxypropanoyl)amino}-N-[3-(1H-imidazol-1-yl)propyl]-1,3-thiazole-5-carboxamide] | 
7250 nM | 1.12 nM | COCCC(=O)N(CC1CCC(=O)N1)c1ncc(C(=O)NCCCn2ccnc2)s1 (stereo not shown) [Example 194, N-[3-(1H-imidazol-1-yl)propyl]-2-{(3-methoxypropanoyl)[(5-oxopyrrolidin-2-yl)methyl]amino}-1,3-thiazole-5-carboxamide] | 
> 10000 nM | 0.338 nM | COCCC(=O)N(CCC(=O)N1CCCC1)c1ncc(C(=O)NCCCn2ccnc2)s1 [Example 195, N-[3-(1H-imidazol-1-yl)propyl]-2-{(3-methoxypropanoyl)[3-oxo-3-(pyrrolidin-1-yl)propyl]amino}-1,3-thiazole-5-carboxamide] | 
7010 nM | 0.538 nM | COCCC(=O)N(CC(=O)N1CCCCC1)c1ncc(C(=O)NCCCn2ccnc2)s1 [Example 196, N-[3-(1H-imidazol-1-yl)propyl]-2-{(3-methoxypropanoyl)[2-oxo-2-(piperidin-1-yl)ethyl]amino}-1,3-thiazole-5-carboxamide] | 
9210 nM | 0.251 nM | COCCC(=O)N(CCCN1CCCC1=O)c1ncc(C(=O)NCCCn2ccnc2)s1 [Example 197, N-[3-(1H-imidazol-1-yl)propyl]-2-{(3-methoxypropanoyl)[3-(2-oxopyrrolidin-1-yl)propyl]amino}-1,3-thiazole-5-carboxamide] | 
2610 nM | 0.633 nM | COCCC(=O)N(CCN1CCOC1=O)c1ncc(C(=O)NCCCn2ccnc2)s1 [Example 198, N-[3-(1H-imidazol-1-yl)propyl]-2-{(3-methoxypropanoyl)[2-(2-oxo-1,3-oxazolidin-3-yl)ethyl]amino}-1,3-thiazole-5-carboxamide] | 
> 10000 nM | 0.493 nM | COCCC(=O)N(CCNC(=O)C(C)C)c1ncc(C(=O)NCCCn2ccnc2)s1 [Example 199, N-[3-(1H-imidazol-1-yl)propyl]-2-[(3-methoxypropanoyl){2-[(2-methylpropanoyl)amino]ethyl}amino]-1,3-thiazole-5-carboxamide] | 
> 10000 nM | 0.747 nM | CNC(=O)CCN(C(=O)CCOC)c1ncc(C(=O)NCCCn2ccnc2)s1 [Example 200, N-[3-(1H-imidazol-1-yl)propyl]-2-{(3-methoxypropanoyl)[3-(methylamino)-3-oxopropyl]amino}-1,3-thiazole-5-carboxamide] | 
> 10000 nM | 0.457 nM | COCCC(=O)N(CCCNC(C)=O)c1ncc(C(=O)NCCCn2ccnc2)s1 [Example 201, 2-{[3-(acetylamino)propyl](3-methoxypropanoyl)amino}-N-[3-(1H-imidazol-1-yl)propyl]-1,3-thiazole-5-carboxamide] | 
4990 nM | 0.405 nM | COCCC(=O)N(CC(=O)N1CCCC1)c1ncc(C(=O)NCCCn2ccnc2)s1 [Example 202, N-[3-(1H-imidazol-1-yl)propyl]-2-{(3-methoxypropanoyl)[2-oxo-2-(pyrrolidin-1-yl)ethyl]amino}-1,3-thiazole-5-carboxamide] | 
> 10000 nM | 13.6 nM | O=C(NCCCn1ccnc1)c1cnc(N2CCN(CCO)C2=O)s1 [Example 203, 2-[3-(2-hydroxyethyl)-2-oxoimidazolidin-1-yl]-N-[3-(1H-imidazol-1-yl)propyl]-1,3-thiazole-5-carboxamide] | 
3730 nM | 1.46 nM | O=C(NCCCn1ccnc1)c1cnc(N2CCN(c3ccc(F)cc3)C2=O)s1 [Example 204, 2-[3-(4-fluorophenyl)-2-oxoimidazolidin-1-yl]-N-[3-(1H-imidazol-1-yl)propyl]-1,3-thiazole-5-carboxamide] | 
739 nM | 0.177 nM | O=C(NCCCn1ccnc1)c1cnc(N(Cc2ccc(Cl)cn2)C(=O)C2CCOCC2)s1 [Example 205, 2-{[(5-chloropyridin-2-yl)methyl](tetrahydro-2H-pyran-4-ylcarbonyl)amino}-N-[3-(1H-imidazol-1-yl)propyl]-1,3-thiazole-5-carboxamide] | 
5630 nM | 0.633 nM | O=C(NCCCn1ccnc1)c1cnc(N(Cc2ccc(Cl)cn2)C(=O)C2CCOC2)s1 (stereo not shown) [Example 206, 2-{[(5-chloropyridin-2-yl)methyl](tetrahydrofuran-3-ylcarbonyl)amino}-N-[3-(1H-imidazol-1-yl)propyl]-1,3-thiazole-5-carboxamide] | 
3860 nM | 0.331 nM | COCCC(=O)N(CCc1ccc(Cl)cn1)c1ncc(C(=O)NCCCn2ccnc2)s1 [Example 207, 2-{[2-(5-chloropyridin-2-yl)ethyl](3-methoxypropanoyl)amino}-N-[3-(1H-imidazol-1-yl)propyl]-1,3-thiazole-5-carboxamide] | 
2890 nM | 0.25 nM | O=C(NCCCn1ccnc1)c1cnc(N(CCc2ccc(Cl)cn2)C(=O)C2CCOC2)s1 (stereo not shown) [Example 208, 2-{[2-(5-chloropyridin-2-yl)ethyl](tetrahydrofuran-3-ylcarbonyl)amino}-N-[3-(1H-imidazol-1-yl)propyl]-1,3-thiazole-5-carboxamide] | 
6700 nM | 0.245 nM | COCCNC(=O)N(CCc1ccc(Cl)cn1)c1ncc(C(=O)NCCCn2ccnc2)s1 [Example 209, 2-{[2-(5-chloropyridin-2-yl)ethyl][(2-methoxyethyl)carbamoyl]amino}-N-[3-(1H-imidazol-1-yl)propyl]-1,3-thiazole-5-carboxamide] | 
2740 nM | 0.192 nM | CC(C)OCCNC(=O)N(CCc1ccc(Cl)cn1)c1ncc(C(=O)NCCCn2ccnc2)s1 [Example 210, 2-([2-(5-chloropyridin-2-yl)ethyl]{[2-(propan-2-yloxy)ethyl]carbamoyl}amino)-N-[3-(1H-imidazol-1-yl)propyl]-1,3-thiazole-5-carboxamide] | 
5710 nM | 1.03 nM | O=C(NCCCn1ccnc1)c1cnc(N2C[C@H](CN3C(=O)c4ccccc4C3=O)OC2=O)s1 [Example 212, 2-{(5S)-5-[(1,3-dioxo-1,3-dihydro-2H-isoindol-2-yl)methyl]-2-oxo-1,3-oxazolidin-3-yl}-N-[3-(1H-imidazol-1-yl)propyl]-1,3-thiazole-5-carboxamide] | 
9860 nM | 0.411 nM | COCCN(C(=O)Cc1ccccn1)c1ncc(C(=O)NCCCn2ccnc2)s1 [Example 213, N-[3-(1H-imidazol-1-yl)propyl]-2-[(2-methoxyethyl)(pyridin-2-ylacetyl)amino]-1,3-thiazole-5-carboxamide] | 
 |  | O=C(/C=C/c1cccnc1)NCCCCC1CCN(C(=O)c2ccccc2)CC1 [FK866] | apoptosis of activated T cells (activated T cells): induce apoptosis; proliferation of activated T cells (activated T cells): selectively block proliferation; efficacy in animal models of arthritis [2]: efficacious; manifestations of experimental autoimmune encephalomyelitis [3]: ameliorated the manifestations
